Assay results as given in patent US6770287B1, “Biocidal cellulosic material” (The Regents of the University of California, priority 2000, dated 2004).
Marks after values point to notes of the source that are not given here.

System: E. coli enhanced green fluorescent protein (B)GFP 0157:H7
Assay: Biocidal wood blocks: CFU recovered after contact
Assay type: cell-based
Details: for average percent reduction of bacterium as compared to the untreated control blocks: estimated from the data of all trials
Procedure: The blocks were prepared by dividing large cutting boards into squares with sides measuring 5 cm using a table saw. The blocks were of the face-grain configuration. The edges were then smoothened with 120 or 180 grit sandpaper as needed to achieve uniformity among all blocks. The blocks were visually inspected to be the correct size and any blocks that appeared to deviate from the standard were remeasured and discarded if they were an incorrect size.
The blocks (Bemis Manufacturing Company, 300 Mill Street, PO Box 901, Sheboygan Falls, Wis., 53085-0901) were labeled based on concentration and ascending numbers. The blocks were immersed in solutions containing the following two formulations, respectively: […]
And the blocks were taken out from the solutions after they are completely soaked by the chemicals, and then dried at 80° C. in an oven for a prolonged time till they are completely dry. The curing of the blocks was conducted at 150° C. for over 30 minutes.
A bleach process is necessary to activate the biocide. A bleach solution containing about 0.05% sodium hypochlorite was prepared from a commercial Clorox liquid (containing 5.25% sodium hypochlorite). The volume of the solution was based on a liquid to wood mass ratio of 50:1. The blocks were scrubbed lightly on a sponge saturated with the chlorine solution from the bath for five strokes. The blocks were placed face down in the diluted bleach solution for 15 minutes. After 15 minutes the blocks were transferred directly to a cooling rack (to allow even drying) in a laminar flow hood that had been previously sterilized with a 70% ethanol solution and left with the exhaust turned on. The blocks were then left in the laminar flow hood until completely dry (at least five hours).
1. A sample of E. coli enhanced green fluorescent protein (B)GFP 0157:H7 was inoculated into a test tube of LB broth with 0.01% ampicillin and 0.01% novobiocin antibiotics (to be referred to as LBAN). The test tube was labeled and then incubated at 37° C. for 24 hours. The sample was then serial diluted with LBAN broth. 0.1 mL of the broth was then inoculated onto LB or Brain Heart Infusion (BHI) agar, also with ampicillin and 0.01% novobiocin antibiotics. The concentrations of 10^−7, 10^−6, and 10^−5 were spread plated. These plates were allowed to incubate for 24 hours at 37° C. The CFU/mL was determined by averaging the colonies from the plates of the most easily countable concentration.
7. The timer was started and the inoculum was spread on the blocks at the rate of one per 30 seconds.
8. 0.2 mL of the inoculum was spread onto the blocks using the pipet tip and pipetter. A new pipet tip was used for each block.
9. After the correct (variable) contact time, the blocks were carefully pressed on the agar surface for 20 seconds and then the plates were inverted and placed in an incubator at 37° C. for 24 hours.
10. The colonies were counted for each plate and thus the kills were determined for each concentration.

[1] = trial A, 5% biocide, inoculum 2.5 × 10^5, contact time 5 minutes
[2] = trial A, 10% biocide, inoculum 2.5 × 10^5, contact time 5 minutes
[3] = trial B, 5% biocide, inoculum 1.8 × 10^5, contact time 5 minutes
[4] = trial B, 10% biocide, inoculum 1.8 × 10^5, contact time 5 minutes
[5] = trial C, 5% biocide, inoculum 1.4 × 10^5, contact time 5 minutes
[6] = trial C, 10% biocide, inoculum 1.4 × 10^5, contact time 5 minutes
[7] = trial D, 5% biocide, inoculum 1.4 × 10^5, contact time 5 minutes
[8] = trial D, 10% biocide, inoculum 1.4 × 10^5, contact time 5 minutes
[9] = trial E, 5% biocide, inoculum 1.0 × 10^4, contact time 5 minutes
[10] = trial E, 10% biocide, inoculum 1.0 × 10^4, contact time 5 minutes
[11] = trial F, 5% biocide, inoculum 1.0 × 10^4, contact time 5 minutes
[12] = trial F, 10% biocide, inoculum 1.0 × 10^4, contact time 5 minutes
[13] = trial G, 5% biocide, inoculum 3.3 × 10^4, contact time 2.5 minutes
[14] = trial G, 10% biocide, inoculum 3.3 × 10^4, contact time 2.5 minutes
[15] = trial H, 5% biocide, inoculum 3.3 × 10^4, contact time 5 minutes
[16] = trial H, 10% biocide, inoculum 3.3 × 10^4, contact time 5 minutes
[17] = trial I, 5% biocide, inoculum 1.0 × 10^4, contact time 5 minutes
[18] = trial I, 10% biocide, inoculum 1.0 × 10^4, contact time 5 minutes
[19] = trial J, 1st line, 5% biocide, inoculum 1.37 × 10^5, contact time 5 minutes
[20] = trial J, 1st line, 10% biocide, inoculum 1.37 × 10^5, contact time 5 minutes
[21] = trial J, 2nd line, 5% biocide, inoculum 1.37 × 10^5, contact time 5 minutes
[22] = trial J, 2nd line, 10% biocide, inoculum 1.37 × 10^5, contact time 5 minutes
[23] = trial K, New Blocks, 5% biocide, inoculum 1.2 × 10^4, contact time 5 minutes
[24] = trial K, New Blocks, 10% biocide, inoculum 1.2 × 10^4, contact time 5 minutes
[25] = trial K, Old Blocks, 5% biocide, inoculum 1.2 × 10^4, contact time 5 minutes
[26] = trial K, Old Blocks, 10% biocide, inoculum 1.2 × 10^4, contact time 5 minutes
[27] = trial L, New Blocks, 5% biocide, inoculum 8.0 × 10^1, contact time 5 minutes
[28] = trial L, New Blocks, 10% biocide, inoculum 8.0 × 10^1, contact time 5 minutes
[29] = trial L, Old Blocks, 5% biocide, inoculum 8.0 × 10^1, contact time 5 minutes
[30] = trial L, Old Blocks, 10% biocide, inoculum 8.0 × 10^1, contact time 5 minutes
[31] = trial M, New Blocks, 5% biocide, inoculum 6.45 × 10^3, contact time 10 minutes
[32] = trial M, New Blocks, 10% biocide, inoculum 6.45 × 10^3, contact time 10 minutes
[33] = trial M, Old Blocks, 5% biocide, inoculum 6.45 × 10^3, contact time 10 minutes
[34] = trial M, Old Blocks, 10% biocide, inoculum 6.45 × 10^3, contact time 10 minutes
[35] = trial N, New Blocks, 5% biocide, inoculum 6.6 × 10^4 CFU/mL, contact time 10 minutes
[36] = trial N, New Blocks, 10% biocide, inoculum 6.6 × 10^4 CFU/mL, contact time 10 minutes
[37] = trial N, Old Blocks, 5% biocide, inoculum 6.6 × 10^4 CFU/mL, contact time 10 minutes
[38] = trial N, Old Blocks, 10% biocide, inoculum 6.6 × 10^4 CFU/mL, contact time 10 minutes

Q: How did the “average percent reduction of bacterium as compared to the untreated control blocks” value (5% blocks) turn out when `CC1(C)C(=O)N(CO)C(=O)N1CO` [Anti-2, 1,3-dimethylol-5,5-dimethylhydantoin] was run?
A: about 86%

Q: And the “average percent reduction of bacterium as compared to the untreated control blocks” value (10% concentration blocks)?
A: 91%

Q: What about the “means CFU/block ± standard deviation” value [1] of the same compound?
A: 125.3 ± 74.1 CFU/block

Q: What about the “percentage reduction compared to control” value [1] of the same compound?
A: (85.0%)**

Q: What about the “means CFU/block ± standard deviation” value [2] of the same compound?
A: 166.3 ± 132.2 CFU/block

Q: What about the “percentage reduction compared to control” value [2] of the same compound?
A: (81.2%)**

Q: And the “means CFU/block ± standard deviation” value [3]?
A: 11.6 ± 11.4 CFU/block

Q: And the “percentage reduction compared to control” value [3]?
A: (97.6%)

Q: What about the “means CFU/block ± standard deviation” value [4] of the same compound?
A: 26.3 ± 27.6 CFU/block

Q: What about the “percentage reduction compared to control” value [4] of the same compound?
A: (94.5%)

Q: What about the “means CFU/block ± standard deviation” value [5] of the same compound?
A: 65 ± 23.5 CFU/block

Q: What about the “percentage reduction compared to control” value [5] of the same compound?
A: (85.4%)

Q: What about the “means CFU/block ± standard deviation” value [6] of the same compound?
A: 48 ± 44.2 CFU/block

Q: What about the “percentage reduction compared to control” value [6] of the same compound?
A: (89.2%)

Q: What about the “means CFU/block ± standard deviation” value [7] of the same compound?
A: 19.8 ± 6.8 CFU/block

Q: What about the “percentage reduction compared to control” value [7] of the same compound?
A: (95.0%)

Q: And the “means CFU/block ± standard deviation” value [8]?
A: 26.8 ± 20.1 CFU/block

Q: What about the “percentage reduction compared to control” value [8] of the same compound?
A: (93.2%)

Q: And the “means CFU/block ± standard deviation” value [9]?
A: 2.5 ± 2.9 CFU/block

Q: What about the “percentage reduction compared to control” value [9] of the same compound?
A: (97.7%)

Q: And the “means CFU/block ± standard deviation” value [10]?
A: 2.3 ± 3.4 CFU/block

Q: And the “percentage reduction compared to control” value [10]?
A: (97.8%)

Q: What about the “means CFU/block ± standard deviation” value [11] of the same compound?
A: 25.9 ± 13.8 CFU/block

Q: And the “percentage reduction compared to control” value [11]?
A: (94.3%)

Q: What about the “means CFU/block ± standard deviation” value [12] of the same compound?
A: 31.7 ± 25.1 CFU/block

Q: What about the “percentage reduction compared to control” value [12] of the same compound?
A: (93.1%)

Q: And the “means CFU/block ± standard deviation” value [13]?
A: 20.8 ± 13.8 CFU/block

Q: What about the “percentage reduction compared to control” value [13] of the same compound?
A: (89.8%)

Q: What about the “means CFU/block ± standard deviation” value [14] of the same compound?
A: 10.3 ± 7.8 CFU/block

Q: What about the “percentage reduction compared to control” value [14] of the same compound?
A: (95.0%)

Q: And the “means CFU/block ± standard deviation” value [15]?
A: 14 ± 11.4 CFU/block

Q: What about the “percentage reduction compared to control” value [15] of the same compound?
A: (80.1%)

Q: What about the “means CFU/block ± standard deviation” value [16] of the same compound?
A: 7.4 ± 4.0 CFU/block

Q: What about the “percentage reduction compared to control” value [16] of the same compound?
A: (89.9%)

Q: And the “means CFU/block ± standard deviation” value [17]?
A: 12.3 ± 8.4 CFU/block

Q: What about the “percentage reduction compared to control” value [17] of the same compound?
A: (73.8%)

Q: What about the “means CFU/block ± standard deviation” value [18] of the same compound?
A: 6 ± 4.2 CFU/block

Q: And the “percentage reduction compared to control” value [18]?
A: (87.2%)

Q: What about the “means CFU/block ± standard deviation” value [19] of the same compound?
A: 63.7 ± 45.1 CFU/block

Q: And the “percentage reduction compared to control” value [19]?
A: (80.6%)

Q: What about the “means CFU/block ± standard deviation” value [20] of the same compound?
A: 37.9 ± 14.3 CFU/block

Q: And the “percentage reduction compared to control” value [20]?
A: (88.5%)

Q: And the “means CFU/block ± standard deviation” value [21]?
A: 45.8 ± 19.2 CFU/block

Q: And the “percentage reduction compared to control” value [21]?
A: (85.8%)

Q: And the “means CFU/block ± standard deviation” value [22]?
A: 14.6 ± 12.5 CFU/block

Q: And the “percentage reduction compared to control” value [22]?
A: (95.5%)

Q: And the “means CFU/block ± standard deviation” value (trial J, 3rd line, 5% biocide, inoculum 1.37 × 10^5, contact time 5 minutes)?
A: 37.4 ± 15.8 CFU/block

Q: And the “means CFU/block ± standard deviation” value (trial J, 3rd line, 10% biocide, inoculum 1.37 × 10^5, contact time 5 minutes)?
A: 29.7 ± 25.1 CFU/block

Q: What about the “means CFU/block ± standard deviation” value [23] of the same compound?
A: 7.7 ± 3.0 CFU/block

Q: What about the “percentage reduction compared to control” value [23] of the same compound?
A: (90.7%)

Q: What about the “means CFU/block ± standard deviation” value [24] of the same compound?
A: 4.9 ± 5.8 CFU/block

Q: And the “percentage reduction compared to control” value [24]?
A: (94.1%)

Q: What about the “means CFU/block ± standard deviation” value [25] of the same compound?
A: 12.0 ± 9.4 CFU/block

Q: What about the “percentage reduction compared to control” value [25] of the same compound?
A: (77.3%)

Q: What about the “means CFU/block ± standard deviation” value [26] of the same compound?
A: 9.3 ± 5.4 CFU/block

Q: What about the “percentage reduction compared to control” value [26] of the same compound?
A: (82.4%)

Q: What about the “means CFU/block ± standard deviation” value [27] of the same compound?
A: 0.17 ± 0.41 CFU/block

Q: And the “percentage reduction compared to control” value [27]?
A: (98.1%)

Q: What about the “means CFU/block ± standard deviation” value [28] of the same compound?
A: 0 ± 0 CFU/block

Q: And the “percentage reduction compared to control” value [28]?
A: (100%

Q: What about the “means CFU/block ± standard deviation” value [29] of the same compound?
A: 1.3 ± 1.3 CFU/block

Q: What about the “percentage reduction compared to control” value [29] of the same compound?
A: (88.9%)

Q: And the “means CFU/block ± standard deviation” value [30]?
A: 0.67 ± 0.71 CFU/block

Q: And the “percentage reduction compared to control” value [30]?
A: (94.3%)

Q: And the “means CFU/block ± standard deviation” value [31]?
A: 3.3 ± 2.4 CFU/block

Q: What about the “percentage reduction compared to control” value [31] of the same compound?
A: (60.2%

Q: And the “means CFU/block ± standard deviation” value [32]?
A: 1.6 ± 1.8 CFU/block

Q: What about the “percentage reduction compared to control” value [32] of the same compound?
A: (80.7%)

Q: What about the “means CFU/block ± standard deviation” value [33] of the same compound?
A: 3.3 ± 2.1 CFU/block

Q: What about the “percentage reduction compared to control” value [33] of the same compound?
A: (82.4%)

Q: What about the “means CFU/block ± standard deviation” value [34] of the same compound?
A: 3.3 ± 2.4 CFU/block

Q: And the “percentage reduction compared to control” value [34]?
A: (82.4%)

Q: What about the “means CFU/block ± standard deviation” value [35] of the same compound?
A: 17.8 ± 4.8 CFU/block

Q: And the “percentage reduction compared to control” value [35]?
A: (88.2%)

Q: And the “means CFU/block ± standard deviation” value [36]?
A: 6.2 ± 5.8 CFU/block

Q: And the “percentage reduction compared to control” value [36]?
A: (95.9%)

Q: What about the “means CFU/block ± standard deviation” value [37] of the same compound?
A: 20.7 ± 6.1 CFU/block

Q: What about the “percentage reduction compared to control” value [37] of the same compound?
A: (86.5%)

Q: What about the “means CFU/block ± standard deviation” value [38] of the same compound?
A: 15.9 ± 6.7 CFU/block

Q: And the “percentage reduction compared to control” value [38]?
A: (89.6%)

Q: And the “more effective reductions of the bacterium on newer blocks than on old blocks” value (trials J-N, new versus old blocks)?
A: 5-10%
